Laboratory results from patent publication US20210321985A1, “COMPOSITIONS AND METHODS FOR TARGETED CONTRAST AGENTS FOR MOLECULAR IMAGING” (ARIZONA BOARD OF REGENTS ON BEHALF OF THE UNIVERSITY OF …, priority 2016, published 2021).

Assay: Dissolution time of a 2.5-micron encapsulated microbubble in air-saturated liquid
Assay type: physicochemical
Details: for Dissolution time: 2.5-micron encapsulated microbubble, air-saturated liquid

Row | Dissolution time [h] | stability of microbubbles relative to microbubbles containing C3F8 (from Table 4) | stability of microbubbles relative to microbubbles containing C4F10 (from Table 4) | stability of microbubbles relative to microbubbles containing C5F12 (from Table 4) | Structure (SMILES)
1 | 83 | – | – | – | FC(F)(F)C(F)(F)C(F)(F)C(F)(F)F [Perfluorobutane]
2 | 0.7 | – | – | – | FC(F)(F)C(F)(F)C(F)(F)F [Perfluoropropane]
3 | 408 | ~14,000 times | about five | – | FC(F)(F)C(F)(F)C(F)(F)C(F)(F)C(F)(F)F [Perfluoropentane (DDFP), Perfluoropentane]
4 | – | – | – | only minimal increase in stability | FC(F)(F)C(F)(F)C(F)(F)C(F)(F)C(F)(F)C(F)(F)F [Perfluorohexane]
